The values that follow are results of earlier work, collected in patent US20050203014A1, “Composition and methods for modulating CNS activity” (Curis, Inc., priority 2003, published 2005).

For data set [1], the system named is knock-out mice lacking 5-HT1A receptors. To be noted: 5-HT1A receptor knock-out mice.
Data set [2] deals with dentate gyrus of the rat hippocampus.

Take `CNCCC(Oc1ccc(C(F)(F)F)cc1)c1ccccc1` (centres unmarked) [fluoxetine]: the response to antidepressant result in data set [1] was “non-responsive”. Moreover, the “neurogenesis in the dentate gyrus” value in data set [2] is “increase neurogenesis”.

Consider `CNCCCN1c2ccccc2CCc2ccccc21` [desipramine], for which the response to antidepressant entry in data set [1] is on record as “respond”.

As for `CN(C)CCCN1c2ccccc2CCc2ccccc21` [imipramine], the response to antidepressant result in data set [1] is reported as “respond”. Besides, the “neurogenesis in the dentate gyrus” value in data set [2] is given as “increase neurogenesis”.
